Assay [1] has as its target BTK C481S (Homo sapiens, UniProt Q06187, C481S). The experiment in a line: BTK degradation (Total BTK HTRF) in TMD8 cells expressing BTK-C481S. The class given is cell-based. On the set-up: endogenous in cells; host or cells: TMD8 BTK-C481S (clone2C3), Cas9 RNP knock-in. The following applies: TMD8 BTK-C481S (clone2C3) cells, treatment time 4 h. In outline:
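TMD8 cells expressing BTK-C481S were treated for four hours, then lysed for 30 min. Total BTK was measured by HTRF with Eu-cryptate donor and d2 acceptor antibodies as the 665/620 nm ratio, minus donor-only background. DC50 came from four-parameter fits of signal relative to DMSO-treated cells.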

For assay [2], the system named is B cell receptor (BCR) signaling. The experiment in a line: B cell activation assay (flow cytometry), human B cells. The class given is cell-based. The following applies: treatment 4 h, IgM stimulation 18 h. How it is done: Compound was present throughout the stimulation. Cells were stained with Live/Dead dye (Fisher L34976) and then fluorophore-conjugated antibodies against CD20 (Biolegend 302330), CD3 (BD Pharmingen 557705), CD86 (Biolegend 305416) and CD69 (Biolegend 310906). Stained cells were fixed in PFA and run on an Attune N×T Acoustic Focusing Flow Cytometer (Thermo-Fisher A29004), and data was analyzed using FlowJo (v10.5.3) and GraphPad Prism (v7.00) software. Single live lymphocytes were gated for B cells (CD20+CD3−) and T cells (CD3+CD20−), and the geometric mean fluorescence intensity (MFI) of CD86 and CD69 was calculated for each population. The MFI of the unstimulated sample was used to quantify baseline activation.
This example evaluates whether CTM treatment affects B cell receptor (BCR) signaling. BTK is activated downstream of the B cell receptor and leads to upregulation of activation markers CD86 and CD69 on the surface of B cells.

Assay [3] concerns the target T1, BTK (Mus musculus, UniProt P35991).
T1 construct: from tissue; host or cells: mouse blood B cells / splenocytes (CD-1 or BALB/c)
Put plainly: Mouse DRF PD, BTK remaining in B cells. In kind it is in vivo. The following applies: blood, 24 h after previous dose. How it is done:
A method of determining the pharmacodynamic profile of BTK degraders was performed by dosing either CD-1 or BALB/c mice with CTM. The CTM was prepared in a suitable formulation and was administered via oral gavage (PO) at a suitable dose level and frequency as informed by prior pharmacokinetic and tolerability studies. Following administration of CTM, BTK levels in blood or splenocytes are measured using flow cytometry or HTRF. For assessment of BTK levels via flow cytometry, either whole blood or splenocytes were first treated with ACK RBC lysis buffer to facilitate lysing of red blood cells. Remaining cells were then stained with fluorophore-conjugated antibodies against CD45, TCR beta and CD45R (B220). Cell pellets were washed with 1×PBS, fixed, and permeabilized for twenty-four hours with Foxp3/Transcription Factor Fixation/Permeabilization Kit. Cells were then stained intracellularly with unconjugated BTK antibody and detected with a fluorophore-conjugated secondary antibody. Stained cells were run on an Attune N×T Acoustic Focusing Flow Cytometer (Thermo-Fisher A29004), and data was analyzed using FlowJo (v10.5.3) and GraphPad Prism (v7.00) software. Lymphocytes were gated for B cells defined as CD45+ TCR beta−B220+ and T cells as CD45+ TCR beta+B220−. The BTK geometric mean fluorescence intensity (MFI) was calculated for B and T cells. Percent BTK degradation for each compound-treated sample was calculated using the equation described below: % Degradation=100*(Treated sample B cell BTK MFI-treated sample T cell BTK MFI)/Vehicle B cell BTK MFI-Vehicle T cell BTK MFI)
This example evaluates potency and tolerability of BTK CTMs following multiple, consecutive days of dosing and evaluates potency of compounds for BTK degradation.
The data in the table below is from a study in which animals were dosed daily with the designated oral dose. Analysis for BTK levels was performed twenty-four hours following the previous dose.

The target in assay [4] is T2, BTK (Homo sapiens, UniProt Q06187). The experiment in a line: BTK degradation (Total BTK HTRF) in Rec-1 cells (Mantle Cell Lymphoma model). The class given is cell-based. On the set-up: endogenous in cells; host or cells: TMD8, Mino, Rec-1. The settings on record: treatment time 4 h. How it is done:
BTK levels were determined using Cisbio Total-BTK HTRF (Homologous Time-Resolved Fluorescence) kit (63ADK064PEG) according to the manufacturer's protocol. Briefly, cells were incubated in 1× supplied lysis buffer for 30 minutes. In an opaque white low volume 96-well plate (Cisbio, 66PL96005), cell lysate was combined with two different specific BTK antibodies, one conjugated with Eu^3+-Cryptate FRET donor and one conjugated with d2 FRET acceptor. Assay controls include wells containing cell lysate with only the Eu^3+-Cryptate FRET donor antibody and wells containing both HTRF antibodies and lysis buffer without cells or control lysate provided by Cisbio. HTRF ratio was calculated as (acceptor signal at 665 nm/donor signal at 620 nm)×10^4. Background HTRF levels were determined from the control well containing the donor, but no acceptor, antibody. Background HTRF levels were subtracted from all samples. Readouts were reported as HTRF levels relative to HTRF levels of DMSO-treated cells. Four-parameter non-linear regressions were performed in GraphPad Prism 7.02 to obtain DC50 values.
This example evaluates the potency of CTMs in a model of Mantle Cell Lymphoma (MCL). To evaluate potential therapeutic indications, BTK CTMs were assayed in models of Mantle Cell Lymphoma as with the TMD8 cells (ABC-DLBCL) above. Tested CTMs had similar potencies for BTK degradation in the MCL cell lines (Mino and Rec-1) and TMD8 cells.

The target in assay [5] is T2, BTK. Put plainly: BTK degradation in human PBMCs (BTK flow cytometry), primary human B cells. In kind it is cell-based. On the set-up: endogenous in cells; host or cells: human PBMC (B cells) from healthy donors. How it is done: Human peripheral blood mononuclear cells (PBMC) were obtained either: 1) by using Ficoll-Paque™ (GE Healthcare) for separation of peripheral blood hematopoietic cells from buffy coats of healthy human donors; or 2) directly from LeukoPak donations. PBMCs were grown at 37° C. and 5% CO2 in RPMI supplemented with 10% heat-inactivated FBS (Corning Premium Fetal Bovine Serum from Fisher, MT35015CV), 1× Penicillin/Streptomycin, and 2 mM Glutamine.
BTK Degradation in Human PBMCs (BTK Flow Cytometry)
This example evaluates the potency of CTMs in primary human B cells, rather than transformed or immortalized cancer cell lines. Primary cells are believed to be a physiologically relevant model. Thus, this example confirms the potency, kinetics, and level of BTK degradation in these cells in addition to the cell line models. Furthermore, this assay establishes that it is possible to monitor BTK degradation in primary human B cells, which can serve as a clinical biomarker.

[6] abbreviates: 30 mg/kg PO daily, 1 day of dosing.
Setting [7] is: 30 mg/kg PO daily, 14 days of dosing.
Setting [8] is: 100 mg/kg PO daily, 1 day of dosing.
Where [9] appears, read: 100 mg/kg PO daily, 14 days of dosing.
[10] abbreviates: 300 mg/kg PO daily, 1 day of dosing.
Where [11] appears, read: 300 mg/kg PO daily, 14 days of dosing.

The structures appear in SMILES notation. Like-named read-outs stand apart in the source and are kept apart here.

In turn, `CN1CCN([C@@H]2CCCN(c3cnc(C(N)=O)c(Nc4ccc(C5CCN(CC6CCN(c7ccc8c(=O)n(C9CCC(=O)NC9=O)ccc8c7)CC6)CC5)cc4)n3)C2)C1=O` (stereo partly shown) [Compound 72] came in with a DC50 in assay [1] of 2 nM.

For the compound `CN1CCN([C@H]2CCCN(c3cnc(C(N)=O)c(Nc4ccc(C5CCN(CC6CCN(c7ccc(C(=O)NC8CCC(=O)NC8=O)nc7)CC6)CC5)cc4)n3)C2)C1=O` (stereo partly shown) [Compound 130], the results for the EC50 in assay [2] (read-out: CD69 EC50) and in assay [2] (read-out: CD86 EC50) were 0.4 nM and 0.5 nM, respectively. Also, the “% BTK Remaining in B cells” value in assay [3] (setting [6]) is listed as 11%; in assay [3] (setting [7]) it was 6%; in assay [3] (setting [8]), 3%; in assay [3] (setting [9]), 2%; in assay [3] (setting [10]) it was 2%; in assay [3] (setting [11]), under 1%. In addition, the DC50 in assay [4] worked out at 2 nM; in assay [5] (treatment time 4 h), 0.13 nM; in assay [1] it was 1.8 nM.

As to `CN1CCN([C@@H]2CCCN(c3cnc(C(N)=O)c(Nc4ccc(C5CCN(C[C@H]6CCN(c7ccc8c(c7)C(=O)N(C7CCC(=O)NC7=O)C8=O)C6)CC5)cc4)n3)C2)C1=O` (stereo partly shown) [Compound 44], the EC50 in assay [2] (read-out: CD69 EC50) and in assay [2] (read-out: CD86 EC50) was 0.5 nM throughout. For the same compound, the “% BTK Remaining in B cells” value was determined as 16% in assay [3] (setting [6]); 16% in assay [3] (setting [7]); 10% in assay [3] (setting [8]); 11% in assay [3] (setting [9]); 8% in assay [3] (setting [10]); 10% in assay [3] (setting [11]). Besides, the DC50 in assay [4] stood at 1 nM; in assay [5] (treatment time 1 h) it was 6 nM; in assay [5] (treatment time 2 h), 3 nM; in assay [5] (treatment time 4 h), 0.51 nM; in assay [1] it was 1.8 nM.

`CN1CCN([C@@H]2CCCN(c3cnc(C(N)=O)c(Nc4ccc(C5CCN(CC6CCN(c7ccc(-c8nn(C9CCC(=O)NC9=O)c(=O)n8C)cc7)CC6)CC5)cc4)n3)C2)C1=O` (stereo partly shown) [Compound 121] registered a DC50 in assay [1] of 4.1 nM.

As to `NC(=O)c1ncc(N2CCCCC2)nc1Nc1ccc(C2CCN(C[C@@H]3CCN(c4ccc5c(c4)C(=O)N(C4CCC(=O)NC4=O)C5=O)C3)CC2)cc1` (stereo partly shown) [Compound 149], the EC50 is 4 nM in assay [2] (read-out: CD69 EC50) and 5 nM in assay [2] (read-out: CD86 EC50). In addition, the “% BTK Remaining in B cells” value in assay [3] (setting [6]) is recorded as 11%; in assay [3] (setting [7]) it was 8%; in assay [3] (setting [8]) it was 10%; in assay [3] (setting [9]) it was 5%; in assay [3] (setting [10]) it was 6%; in assay [3] (setting [11]) it was 2%. Further, the 50% degradation concentration (DC50) in assay [4] was found to be 4 nM; in assay [5] (treatment time 4 h), 1.9 nM; in assay [1], 14.4 nM.

(Values after patent US12600732B2, “Bifunctional compounds for degrading BTK via ubiquitin proteosome pathway” (NURIX THERAPEUTICS, INC., priority 2019, dated 2026).)
